The values that follow come from patent US11161803B2, “Ammonium carboxylate compound, crystalline form, amorphous form and preparation method thereof” (priority 2017, dated 2021).

Format in all cases: physicochemical
Series [1] in a line: Stability comparison test (main peak purity of the samples on storage). The conditions noted are these: for decrease of purity: at 25° C. 60 days later. As for the experimental part: Each portion was about 100 mg, placed in a zip-lock bag and added with a desiccant, then three-layer packaged by a two-layer aluminum plastic material with each layer vacuumed, and stored at 25° C. (relative humidity 60%) and 40° C. […] Relevant substances of the samples were respectively determined at 0 day, 30 days, and 60 days later.

Assay in series [2]: as above
The conditions noted are these: at 60° C. 60 days later (so in the source).

The nature of series [3]: Solid form and hygroscopicity of the salts as obtained (comparative examples). The note with it: for hygroscopicity (in words) / solid form (in words): product as obtained. As for the experimental part:
(§1) A crude product of ethyl (2R,4S)-5-(biphenyl-4-yl)-4-[(3-carboxypropionyl)amino]-2-methylpentanoate (52.4 g, 0.125 mol) and acetone (629 ml) were added to a 1 L three-necked flask equipped with a mechanical stirrer, stirred and dissolved at room temperature; cooled to 0-10° C. for 5-10 min, added dropwise with potassium hydroxide solution (25 ml, 5 mol/L), after the addition was completed, kept stirring for 1 h, concentrated to dryness, added with methanol (125 ml) or ethanol (125 ml), concentrated to dryness to give potassium 4((2S,4R)-1-([1,1′-biphenyl]-4-yl)-5-ethoxy-4-methyl-5-oxopentan-2-yl)amino)-4-oxobutanoate (AHU-377 potassium salt).
as §1, with “min and” for “min,”, “sodium” for “potassium”, “sodium 4-(((2S,4R)-1-([1,1′-biphenyl]-4-yl)-5-ethoxy-4-methyl-5-oxopentan-2-yl)amino)-4-oxobutyrate” for “potassium 4((2S,4R)-1-([1,1′-biphenyl]-4-yl)-5-ethoxy-4-methyl-5-oxopentan-2-yl)amino)-4-oxobutanoate”
A crude product of ethyl (2R,4S)-5-(biphenyl-4-yl)-4-[(3-carboxypropionyl)amino]-2-methylpentanoate (52.4 g, 0.125 mol) and acetone (629 ml) were added to a 1 L three-necked flask equipped with a mechanical stirrer, stirred and dissolved at room temperature: cooled to 0-10° C. for 5-10 min and added dropwise with a basic ammonium salt such as choline (15 g, 0.125 mol), after the addition was completed, kept stirring for 1 h, concentrated to dryness, added with methanol (125 ml) or ethanol (125 ml), and concentrated to dryness.

A short description of series [4]: Water adsorption and desorption test (DVS, hygroscopicity). The note with it: 25° C.; for change of hygroscopicity: under 80% humidity. The method, then:
DVS detection of the ammonium salt: instrument model: TA Q5000SA, balance at 25° C., humidity start from 0.00%, balance for 180 min, balance for 15 min when the weight gain is less than 0.01%, 10% gradient humidity increase from 0.00% to 90.00%, each gradient maintained for 120 min; a 10% gradient humidity reduction procedure performed when the humidity is from 90.00% to 0.00%, each gradient maintained for 120 min.
DVS detection of other products: instrument model: SMS DVS Intrinsic, 0-95% RH, temperature: 25° C.
The water adsorption and desorption tests of the compound (A) of example 1 at 25° C., 0 to 95% relative humidity were carried out by a dynamic water adsorber (DVS) to determine the hygroscopicity of the compound of formula (A).
The water adsorption and desorption experiments of the crystalline form I of the compound of formula (A) prepared by methods of example 3 at 25° C., 0 to 95% relative humidity were carried out by a dynamic water adsorber (DVS) to determine the hygroscopicity of the crystalline form I of the compound of formula (A).
The water adsorption and desorption experiments of the sample of example 6 at 25° C., 0 to 95% relative humidity were carried out by a dynamic water adsorber (DVS) to determine the hygroscopicity of the amorphous form of the compound of formula (A).

Series [5] in a line: Drug interaction test: stability of the mixture of crystalline form I of the compound of formula (A) + compound of formula (B). The text has this: The applicant has found through repeated studies in the research of drug compatibility that the compound of formula (A), the crystalline form I, single crystal, amorphous form, crystalline form II thereof have good compatibility with the compound of formula (I) described in CN103709154A. A specific compound of formula (B) was selected to be mixed with the crystalline form I of the compound of formula (A) prepared in example 3 of the present disclosure for further stability studies.

[6] abbreviates: 25° C. (relative humidity 60%), test time 0 day.
Where [7] appears, read: 25° C. (relative humidity 60%), test time 30 days.
Where [8] appears, read: 25° C. (relative humidity 60%), test time 60 days.
The mark [9] stands for this setting: 40° C. (relative humidity 75%), test time 0 day.
Where [10] appears, read: 40° C. (relative humidity 75%), test time 30 days.
Setting [11] is: 40° C. (relative humidity 75%), test time 60 days.

Molecules are shown by their SMILES. Structures can show the parent of a compound that is named as a salt.

Consider `CCOC(=O)[C@H](C)C[C@@H](Cc1ccc(-c2ccccc2)cc1)NC(=O)CCC(=O)[O-].[Na+]` [AHU-377 sodium salt, sodium 4-(((2S,4R)-1-([1,1′-biphenyl]-4-yl)-5-ethoxy-4-methyl-5-oxopentan-2-yl)amino)-4-oxobutyrate], for which the main peak purity in series [1] (setting [6]) was determined as 94.12%; in series [1] (setting [7]), 94.16%; in series [1] (setting [8]) it was 93.75%; in series [1] (setting [9]), 94.12%; in series [1] (setting [10]), 94.06%; in series [1] (setting [11]), 93.86%. The values for the decrease of purity in series [1] and in series [2] were 0.37% and 0.26%, respectively. The “hygroscopicity (in words)” value in series [3] is “highly hygroscopic despite less hygroscopic than potassium salt”. In addition, the “solid form (in words)” value in series [3] is on record as “does not exhibit a good solid form”.

As to `CCOC(=O)C(C)CC(Cc1ccc(-c2ccccc2)cc1)NC(=O)CCC(=O)O` (stereo not shown) [crystalline form I of the compound of formula (A)], in series [4] (DVS), the change of hygroscopicity result is on record as “do not change much”. In addition, the “hygroscopicity compared with AHU-377 sodium salt and AHU-377 potassium salt” value in series [3] is “significantly more hygroscopic”.

Regarding `CCOC(=O)C(C)CC(Cc1ccc(-c2ccccc2)cc1)NC(=O)CCC(=O)O` [Compound of formula (A), ammonium 4-((2S,4R)-1-([1, l′-biphenyl]-4-yl)-5-ethoxy-4-methyl-5-oxopentan-2-yl)amino)-4-oxobutanoate], the hygroscopicity entry in series [4] (DVS, 0 to 95% relative humidity, FIG. 26) is recorded as “less than 2%”. In series [1], the “stability compared with the potassium salt and the sodium salt of AHU-377” value is on record as “far superior”. The main peak purity is reported as 99.82% in series [1] (setting [6]); 99.80% in series [1] (setting [7]); 99.82% in series [1] (setting [8]); 99.82% in series [1] (setting [9]); 99.68% in series [1] (setting [10]); 99.58% in series [1] (setting [11]). Also, the decrease of purity result in series [1] is “almost unchanged”; in series [2], 0.24%. Moreover, the “stability compared with the organic ammonium salt of AHU-377” value in series [1] (by comparison in the same experiment) was “superior”.

In the case of `CCOC(=O)C(C)CC(Cc1ccc(-c2ccccc2)cc1)NC(=O)CCC(=O)O` (stereo not shown), the “change of the form in DVS” value in series [4] (range of 0 to 95% relative humidity, FIG. 15) is given as “do not change”.

With `CCOC(=O)[C@H](C)C[C@@H](Cc1ccc(-c2ccccc2)cc1)NC(=O)CCC(=O)O` [AHU-377 potassium salt], the main peak purity is reported as 93.63% in series [1] (setting [6]); 93.31% in series [1] (setting [7]); 93.28% in series [1] (setting [8]); 94.11% in series [1] (setting [9]); 94.05% in series [1] (setting [10]); 93.37% in series [1] (setting [11]). The decrease of purity turned out to be 0.35% in series [1] and 0.74% in series [2]. In addition, the “hygroscopicity (in words)” value in series [3] is “highly hygroscopic”. Further, in series [3], the “solid form (in words)” value is given as “failed to exhibit a good solid form”.

As to `CCOC(=O)[C@H](C)C[C@@H](Cc1ccc(-c2ccccc2)cc1)NC(=O)CCC(=O)O` [organic ammonium salt of 4 ((2S,4R)-1-([1,1′-biphenyl]-4-yl)], in series [3], the “hygroscopicity (in words)” value was “high hygroscopicity” and the “solid form (in words)” value was “cannot be obtained in a solid form”.

For the molecule `CCOC(=O)C(C)CC(Cc1ccc(-c2ccccc2)cc1)NC(=O)CCC(=O)O` (stereo not shown) [crystalline form II], in series [4] (DVS), the change of hygroscopicity result is recorded as “changes very little”.

With `CCOc1nc2cccc(C(=O)OC(C)OC(=O)OCc3nc(C)c(C)nc3C)c2n1Cc1ccc(-c2ccccc2-c2noc(=O)[n-]2)cc1.[K+]` (stereo not shown) [Formula (B)], the “stability of the potassium salt of formula (B) in the mixture with crystalline form I compared with formula (B) as a single component” value in series [5] is “superior”. Also, the “Maximum unknown single impurity” value in series [5] (test time 0 day) is on record as 0.05%; in series [5] (test time 30 days), 0.05%; in series [5] (test time 60 days) it was 0.06%; in series [5] (test time 90 days), 0.04%. Also, the Total impurities in series [5] (test time 0 day) is 0.72%; in series [5] (test time 30 days) it was 1.29%; in series [5] (test time 60 days), 1.67%; in series [5] (test time 90 days), 1.99%.
